What was measured:
Daudi B cell lymphoma = assay: Daudi cell counts in bone marrow, low and high doses (Example 14); type: in vivo, mice; settings: day 24, single agent
Description: SCID mice (N=6/group) were intravenously inoculated with 10 million Daudi cells on Day 0 and treated with a single dose of a lower or higher dose of daratumumab (0.05 mg/kg or 5 mg/kg IP, 14 days following Daudi cell inoculation) and two doses of either lower or higher dose mono(methoxyPEG-N-butanamide)interleukin-15 (compound 1) (0.03 mg/kg or 0.6 mg/kg intravenously, one dose at each of 14 and 21 days after inoculation). Mice were also treated with the single agent therapies: daratumumab (0.05 mg/kg or 5 mg/kg IP, 14 days following Daudi cell inoculation) or two doses of mono(methoxyPEG-N-butanamide)40 kD interleukin-15 (compound 1) (0.03 mg/kg or 0.6 mg/kg intravenously, 14 and 21 days after inoculation). Daudi cell numbers in the bone marrow were assessed three days following the second dose of mono(methoxyPEG-N-butanamide)40 kD interleukin-15 (day 24) by flow cytometry as shown in FIGS. 17A and 17B.

FaDu cells = assay: ADCC of cetuximab-coated FaDu cells by primed human NK cells (Example 20); type: cell-based; settings: NK cells primed with 300 ng/mL overnight; cetuximab 300 ng/mL; E:T 10:1, 3 hours
Description: (§1) Human NK cells were magnetically sorted from normal donor PBMCs using negative selection. NK cells were seeded in a 96-well U-bottom plate at a density of 400,000 cells/well. NK cells were stimulated with mono(methoxyPEG-N-butanamide)40 kD interleukin-15 (Compound 1) (300 ng/mL) (+) or left unstimulated (−) in complete RPMI-1640 media supplemented with 10% fetal bovine serum (FBS) and 1% antibiotic/antimycotic overnight at 37° C. in 5% CO2.
The epithelial/pharyngeal head and neck human FaDu cells (ATCC #HTB-43) were cultured in minimal eagle's essential media (EMEM; ATCC+30-2003) supplemented with 10% fetal bovine serum (FBS) and 1% antibiotic/antimycotic at 37° C. in 5% CO2. FaDu cells were subcultured by incubating in 0.25% Trypsin-0.53 mM EDTA for 5 min at 37° C., washed in sterile PBS, resuspended in culture media, counted, and co-cultured with the NK cells using an effector:target (E:T) of 10:1. […] Following incubation, cells were washed in flow staining buffer, Fc-blocked for 15 min at 4° C., and surface-stained (CD45, CD56, CD3-fluorescently conjugated antibodies) for 20 min at 4° C. in the dark. The cells were washed in PBS and incubated in 7-aminoactinomycin (7-AAD) viability stain for 30 minutes at 4° C. before acquiring for flow cytometric analysis using a Fortessa (BD). […]

[1] = system: human B cell lymphoma (Daudi) cells; assay: ADCC of rituximab-coated target cells by primed human NK cells (Example 12); type: cell-based; settings: NK cells primed with 300 ng/mL overnight; rituximab 10 ng/mL; E:T 2:1, 3 hr
Description: as §1, with “of 80,000 cells/well (FIG. 15A) OR” for “of”, “cells/well (FIG. 15B).” for “cells/well.”, “300 ng/mL of a long-acting IL-15 receptor agonist (mono(mPEG-butanamide)IL-15)” for “mono(methoxyPEG-N-butanamide)40 kD interleukin-15 (Compound 1) (300 ng/mL)”
Alternatively, the human B cell lymphoma (Daudi) cells were washed in PBS and stained with 0.3 μM CFSE for 5 min at 37° C. The rituximab-coated (+10 ng/mL) CFSE-labeled tumor (target cells) cells were concurrently co-cultured with the NK cells (effector cells) in an E:T ratio of 2:1 for 3 hr at 37° C. in 5% CO2. Following incubation, cells were washed in flow staining buffer, Fc-blocked for 15 min at 4° C., and surface-stained (CD45, CD56, CD3-fluorescently conjugated antibodies). The cells were washed in PBS and incubated in 7-aminoactinomycin (7-AAD) viability stain for 30 minutes at 4° C. before acquiring for flow cytometric analysis using a Fortessa (BD). The percentage of 7-AAD+ CFSE+ target cells from total cell population is the percentage for dead tumor cells.

[2] = system: HCT-116 colorectal carcinoma cells; assay: Tumor growth inhibition and delay in HCT-116 colorectal carcinoma xenograft model (Example 19); type: in vivo, mice
Description: Tumor growth inhibition was evaluated on day 19 after treatment initiation.
The tumor growth delay was evaluated by measuring tumor volume quadrupling time (TVQT) from baseline tumor volume on treatment initiation day.

[3] = system: STAT5 phosphorylation in KHYG-1 cells; assay: Phosphorylation of STAT5 in KHYG-1 cells (Example 7); type: cell-based, human; settings: 10 minutes
Description: KHYG-1 cells were cultured in RPMI-1640 medium supplemented with 20% FBS, 2 mM L-glutamine, and 20 ng/mL IL-2 (Complete growth medium) in a humidified incubator at 37° C. and 5% CO2.
One day prior to treatment with test compounds, cells were seeded at a density of 500,000 viable cells/ml in Complete growth medium and incubated overnight under normal growth conditions. On the day of the assay, KHYG-1 cells were washed 3 times with DPBS, resuspended in assay medium (RPMI-1640 medium supplemented with 20% FBS, 2 mM L-glutamine), and incubated for 4-5 hours at 37° C., 5% CO2. Cells were adjusted to the appropriate density (8×10^5 cells/mL) in assay medium and 50,000 cells/well were aliquoted into wells of a 96-well plate (View-Plate 96, Perkin-Elmer).
KHYG-1 cells were stimulated with IL-15 or a long-acting IL-15 receptor agonist (mono(mPEG-butanamide)IL-15) followed by incubation at 37° C., 5% CO2 for 10 minutes. Treated cells were lysed on ice.
Detection of phospho-STAT5 protein levels in cell lysates was performed using the Phospho(Tyr694)/Total STAT5a,b Assay Whole Cell Lysate kit (MSD product #K15163D). Relative light unit (RLU) signal corresponding to phosphor-STAT5 was collected using a Sector® Imager 2400 plate reader (MSD) with the results provided in FIG. 10A.

mono(methoxyPEG-N-butanamide)40 kD interleukin-15 [Conjugate 1]
intra-bone marrow tumor cells depleted (Daudi B cell lymphoma; high dose (daratumumab 5 mg/kg; compound 1 0.6 mg/kg)): 69%
intra-bone marrow tumor cells depleted (Daudi B cell lymphoma; low dose (daratumumab 0.05 mg/kg; compound 1 0.03 mg/kg)): 42%
ADCC, % 7-AAD+CD45- target cells (FaDu cells): enhance ADCC of cetuximab-coated human solid tumor cells
ADCC, % 7-AAD+ target cells [1]: enhance ADCC
tumor growth inhibition ([2]; day 19 after treatment initiation, cetuximab 40 mg/kg IP x6, Compound 1 0.3 mg/kg IV x3): 31%
tumor growth delay (TVQT) ([2]; tumor volume quadrupling time from baseline): 26%
phosphorylation of STAT5 [3]: dose-dependent phosphorylation of STAT5
potency in STAT5 phosphorylation, fold less than IL-15 [3]: ~3 fold

— patent US20210393742A1, “LONG-ACTING INTERLEUKIN-15 RECEPTOR AGONIST IN COMBINATION WITH ANOTHER PHARMACOLOGICALLY ACTIVE AGENT” (Nektar Therapeutics, priority 2018, published 2021)
